Experimental data as given in PMC7906020, “Trp-Containing Antibacterial Peptides Impair Quorum Sensing and Biofilm Development in Multidrug-Resistant Pseudomonas aeruginosa and Exhibit Synergistic Effects With Antibiotics” (Frontiers in Microbiology, 2021).
≈ marks a conversion by molar mass, not a printed value. Where “and” joins values, the source holds several entries; their conditions need not be identical. Identical values can stand only once. Peptide text beside a SMILES is read from it.

Assays:
[1] = system: alginate production in MRPA0108; test: Alginate determination, H2SO4-carbazole method; format: cell-based, Pseudomonas aeruginosa; settings: OD 530 nm
Experimental: (§1) Exopolysaccharides were determined using the phenol-H2SO4 method. Briefly, after incubation, the cultures were centrifuged at 10,000 rpm for 15 min, and the pellets were resuspended in high-salt buffer (10 mM KPO4, 5 mM NaCl, 2.5 mM MgSO4, pH 7.0), followed by recentrifugation at 10,000 rpm for 30 min. The resulting supernatant was mixed with three volumes of chilled ethanol (100%) and incubated overnight at 4°C. The precipitated exopolysaccharide was added to a mixture containing cold phenol and H2SO4, and the absorbance of the solution was measured at 490 nm. Alginate content was determined using the H2SO4-carbazole method. Briefly, after incubation, the precooled cultures were mixed with an H2SO4 solution (4:1) and vortexed in ice water, and then 0.2% carbazole dissolved in ethanol was added. The mixture was revortexed and incubated at 55°C for 30 min, and the OD 530 nm was measured.

[2] = system: OprM gene expression in MRPA0108; test: Real-time qPCR of efflux pump gene OprM; format: cell-based, Pseudomonas aeruginosa; settings: peptide at its MIC (I1W 6.25 μM, L12W 25 μM); Supplementary Figure S2
Experimental: (§2) Mid-logarithmic (mid-log) growth-phase MRPA0108 cells (1 × 10^8 CFU/ml) were incubated with the different concentrations of peptide at 37°C for 18 h. The bacterial cells were collected by centrifugation at 13,000×g and digested in lysis buffer containing 10 mg/ml lysozyme. Total RNA was isolated by using a TRIzol® Max^TM Kit (Invitrogen, Shanghai, China) according to the manufacturer’s instructions and subsequently reverse transcribed into cDNA using a Prime Script RT Master Mix Kit (Takara, Dalian, China). Real-time PCR was performed in an ABI QuantStudio^TM 5 sequence detection system (Applied Biosystems, United States) using 2 × SYBR Premix Ex Taq II (Solarbio Science and Technology Co., Ltd.). The PCR cycling conditions were as follows: 95°C for 30 s and 40 cycles of 5 s at 95°C, 30 s at 60°C, and 20 s at 72°C. The fold changes calculated according to the comparative cycle threshold (Ct) method were used for quantifying gene expression, normalizing to the expression of the housekeeping gene rpsL. PCR primers, including those for lasA, lasB, rhlA, rhlB, pelA, algD, psl, oprD, oprM, mexA, and mexB, were synthesized by Sangon Biotech (Shanghai, China) and are presented in Supplementary Table S2.

[3] = system: OprD gene expression in MRPA0108; test: Real-time qPCR of porin gene OprD; format: cell-based, Pseudomonas aeruginosa; settings: peptide at its MIC (I1W 6.25 μM, L12W 25 μM); Supplementary Figure S2
Experimental: as §2

[4] = system: MRPA0108 strain; settings: previous study, ref Han et al., 2020; cited from earlier work
Description: Supplement Table_1.docx, table 1: Table S1 Biological characteristics and antibacterial activities of the Trp-containing antimicrobial peptides (32) | column: MIC(μM)

[5] = system: MRPA0108 biofilms; test: Confocal laser scanning microscopy of biofilms (LIVE/DEAD staining); format: cell-based, Pseudomonas aeruginosa; settings: 24 h; for percentage of dead/live cells in biofilm: SYTO9/PI, control 8.7%
Experimental: Biofilms of MRPA0108 were visualized by confocal microscopy. Mid-log growth-phase bacteria were diluted to 1 × 10^7 CFU/ml. […] LB liquid medium and erythromycin were used as negative and positive controls, respectively. After incubation, the supernatant was removed, and the slides were washed and stained in a dark environment for 30 min using a LIVE/DEAD BacLight^TM Bacterial Viability Kit (Invitrogen, Life Technologies, Shanghai, China). The slides were washed three times and imaged with a confocal laser scanning microscope (LSM 710, Carl Zeiss, Germany) with excitation/emission wavelengths of 480/500 and 490/635 nm for SYTO9 and propidium iodide (PI), respectively. SYTO9 was used to indicate live bacteria, and PI was used to mark dead bacteria.

[6] = system: rhamnolipid production in MRPA0108; test: Rhamnolipid production, orcinol method; format: cell-based, Pseudomonas aeruginosa; settings: peptide at 1/4 × MIC, 24 h, absorbance 420 nm, vs control, triplicate
Experimental: The culture supernatant was obtained after centrifugation at 12,000×g for 10 min. (1) LasB elastase activity was measured using elastin-Congo red (ECR) as the substrate, as described by [Pattnaik et al. (2018)]. Briefly, 100 μl of the culture supernatant was added to 900 μl of ECR buffer (100 mM Tris-HCl, 1 mM CaCl2, pH 7.5) containing 10 mg of ECR and then incubated with shaking at 37°C for 18 h. Then, 100 μl of 0.12 M EDTA was added to stop the reaction. The insoluble ECR was removed by centrifugation, and the supernatant absorbance was measured at 495 nm. The optical density (OD) 495 nm/OD 600 nm represents the elastase activity. (2) LasA protease activity was measured as follows ([Pattnaik et al., 2018]): first, the culture supernatant was filtered to remove the bacterial cells, and then 150 μl of sterile-filtered supernatant was added to 2% azocasein (prepared in 50 mM Tris-HCl) and incubated for 4 h at 37°C. Trichloroacetic acid (TCA, 10%) was added to precipitate the undigested substrate. After centrifugation at 10,000 rpm for 10 min, 1 M NaOH was added to the supernatant, and the relative protease activity was measured at OD 440 nm. (3) The pyocyanin assay was based on the absorbance of excreted pyocyanin at 520 nm in an acidic solution ([Kong et al., 2005]). Three milliliters of culture supernatant were mixed with 2 ml of chloroform for 20 min, and then the pyocyanin from the chloroform phase was reextracted using 0.2 M HCl for 15 min to obtain a pink-colored pyocyanin solution. The OD 520 nm was measured to evaluate the change in pyocyanin content. (4) Rhamnolipid detection was carried out as previously described ([Wittgens et al., 2011]). Briefly, 500 μl of culture supernatant was mixed with 500 μl of ethyl acetate and vortexed vigorously for 15 s to extract rhamnolipid. After centrifugation at 10,000×g for 5 min at 4°C, the organic phase containing rhamnolipids was obtained and evaporated at room temperature overnight. The rhamnolipid extract dissolved in ultrapure water was mixed with orcinol reagent (0.19% orcinol in 53% H2SO4) and incubated at 80°C for 30 min. The absorbance was measured at 420 nm. (5) The level of C4-HSL was quantified by GC-MS as previously described ([Guo et al., 2012]).

[7] = system: exopolysaccharide production in MRPA0108; test: Exopolysaccharide determination, phenol-H2SO4 method; format: cell-based, Pseudomonas aeruginosa; settings: phenol-H2SO4, 490 nm
Experimental: as §1

Question: With `CC[C@H](C)[C@H](NC(=O)[C@H](CCCCN)NC(=O)[C@H](CO)NC(=O)[C@H](CC(C)C)NC(=O)[C@@H](NC(=O)[C@H](CCCCN)NC(=O)[C@H](CCCCN)NC(=O)[C@@H](N)Cc1c[nH]c2ccccc12)[C@@H](C)CC)C(=O)N[C@@H](CCCCN)C(=O)N[C@@H](CCCCN)C(=O)N[C@@H](CC(C)C)C(=O)N[C@@H](CC(C)C)C(=O)N[C@@H](CCCCN)C(N)=O` [I1W] (H-WKKILSKIKKLLK-NH2; N-terminus and C-terminus assumed) as the compound, how does the “inhibition of alginate production” value ([1]; peptide at 1/4 × MIC) read?
Answer: The value was 53%.

Question: And the “inhibition of alginate production” value ([1]; peptide at 1 × MIC)?
Answer: Its value is 74%.

Question: What about the “reduction of OprM gene expression” value [2] of the same compound?
Answer: The value was 22.3%.

Question: What about the “reduction of OprD gene expression” value [3] of the same compound?
Answer: The value was 27%.

Question: What about the MIC [4] of the same compound?
Answer: The MIC was 6.25 µM (≈ 10.2 µg/mL).

Question: What about the average biofilm thickness ([5]; after treatment with low concentrations of peptide (1 × MIC or 2 × MIC), 37°C, control biofilm 6 μm) of the same compound?
Answer: The average biofilm thickness was 1.5–2.5 μm and 1.5 μm.

Question: What about the “percentage of dead/live cells in biofilm” value ([5]; peptide at 1 × MIC) of the same compound?
Answer: The value was 29.9%.

Question: What about the “percentage of dead/live cells in biofilm” value ([5]; peptide at 2 × MIC) of the same compound?
Answer: The value was 47.9%.

Question: And the “inhibition of rhamnolipid production” value [6]?
Answer: Its value is 45.2%.

Question: And the “reduction of exopolysaccharide production” value ([7]; peptide at 1/4 × MIC, overnight 37°C)?
Answer: Its value is 26.3%.

Question: And the “reduction of exopolysaccharide production” value ([7]; peptide at 1 × MIC)?
Answer: The value was 67.3%.

Question: And the “reduction of exopolysaccharide production” value ([7]; peptide concentration increased onefold from 1/4 × MIC)?
Answer: The value was 42.6%.
